Source: US20210106566A1, “PHARMACEUTICAL COMPOSITION FOR TREATING AND/OR PREVENTING PERIPHERAL NEUROPATHY OR SPINAL CORD INJURY” (NATIONAL UNIVERSITY CORPORATION NAGOYA UNIVERSITY, priority 2015, published 2021)

Legend:
primary motor neurons [1] = assay: Neurite outgrowth in primary spinal cord motor neurons; assay type: cell-based, mouse
Experimental: Primary cultured mouse embryonic spinal cord motor neurons were isolated from spinal cord embryo of C57BL/6J mouse on 13.5th day of embryonic stage (E13.5). Solutions of zonisamide in DMSO were prepared at concentrations from 200 μmol/L to […] and then added to the culture medium to obtain the final concentration of zonisamide from 1 μmol/L to 20 μmol/L. The culture medium contained 0.5% DMSO whether or not it contained zonisamide. The cells were seeded at 4.0×10^3 cells/cm^2 in a 96-well plate (Asahi Techno Glass) coated with poly-L-lysine and laminin and maintained in Sumilon neuron culture medium (Sumitomo Bakelite). After incubation for 2 days, the cells were fixed in PBS with 4% […] at ordinary temperature for 15 minutes. The cells were washed with PBS once, blocked with PBS containing 2% goat serum and 0.1% Triton-X, and immunostained with mouse anti-tau-1 monoclonal antibody (1:500, MAB3420, Millipore) and Alexa Fluor 555-conjugated goat anti-mouse secondary antibody (1:1000, Life Technologies). Neurites were automatically analyzed on ArrayScan VTI HCS Reader. The neurite length and the number of nerve branch points were quantified by evaluating the longer 200 neurites. The ratio of neurite-bearing cells was determined by counting cells having a neurite length of 25 micron or more in each well.

primary motor neurons [2] = assay: Scratch assay of neurite regeneration; assay type: cell-based, mouse; settings: 0, 1, 10, or 20 μmol/L, 48 hours after scratch
Experimental: Primary cultured motor neurons were seeded in a Nun Lab-Tek Chamber Slide (Thermo Scientific) coated with poly-L-lysine at 8.0×10^4 cells/cm^2×0.7 cm^2/well and then cultured in Sumilon neuron culture medium for 48 hours. Neurites of primary motor neurons were linearly scratched off with a 200 μL sterile pipette tip. The cells were immediately rinsed with PBS and cultured in Sumilon neuron culture medium containing 0, 1, 10, or 20 μmol/L zonisamide for 48 hours. The cells were fixed in 4% paraformaldehyde and immunostained with neuron-specific β-III tubulin monoclonal antibody (1:1000, MAB1195, R&D systems) and Alexa Fluor 488-conjugated goat anti-mouse secondary antibody (Life Technologies). Images of the scratched areas were acquired on a microscope (Olympus LX71). The neurite lengths of primary motor neurons in the scratched areas were automatically measured with MetaMorph software (Universal Imaging).

primary motor neurons [3] = assay: Time-lapse imaging of axonal growth; assay type: cell-based, mouse
Experimental: Primary cultured motor neurons were seeded in a 96-well plate at 6.0×10^3 cells/well in Sumilon neuron culture medium to induce neurite outgrowth. Phase-contrast images were taken every 8 hours for 3 days on IncuCyte ZOOM Live Cell Imaging System (Essen Bioscience). The neurite length was automatically analyzed with NeuroTrack software (IncuCyte).

primary motor neurons [4] = assay: MTS assay of cell survival under oxidative stress (hydrogen peroxide); assay type: cell-based, mouse; settings: zonisamide 1 hour before 100 μmol/L hydrogen peroxide for 24 hours; dose-dependent
Experimental: Cell survival rate was assessed by MTS assay (CellTiter 96 Aqueous One Solution Cell Proliferation Assay, Promega), which measured the activity of mitochondrial reductase. Primary cultured motor neurons were cultured in Sumilon neuron culture medium for 24 hours, and the medium was then exchanged to DMEM/F12 supplemented with 0.5% FBS and cultured for 24 hours. Zonisamide was added at various concentrations for 1 hour and 100 μmol/L hydrogen peroxide was then added for 24 hours. The cells were incubated with MTS reagent for 2 hours. MTS signal was quantified on a microplate reader (PowerScan HT, DS PharmaBiomedical). The group of cells treated without hydrogen peroxide was used as a control for evaluating MTS signal.

Erk1/2 = assay: Western blot of Erk1/2 phosphorylation in primary motor neurons; assay type: cell-based, mouse; settings: primary motor neurons, 0, 10, or 20 μmol/L, days 2 and 3
Experimental: Zonisamide (0, 10, or 20 μmol/L) was added to primary motor neurons 4 hours after the beginning of culture. The cells were rinsed with a buffer (50 mmol/L HEPES pH 7.0, 150 mmol/L NaCl, 1% glycerol, 1% TritonX-100, 1.5 mmol/L MgCl2, 1 mmol/L EGTA, 100 mmol/L NaF, 10 mmol/L sodium pyrophosphate, […], 1 mmol/L PMSF, and 1 mmol/L sodium orthovanadate (V)) at days 2 and 3. Total protein was dissolved in 1× Laemmli buffer, separated on a 10% SDS polyacrylamide gel, and transferred to a polyvinylidene fluoride membrane (Immobilon-P, Millipore). The membrane was washed with Tris-buffered physiological saline with 0.05% Tween 20 (TBS-T) and blocked with TBS-T containing 3% skim milk at room temperature for 1 hour. The membrane was incubated with any of anti-Erk1/2 (#4696, Cell Signaling), anti-phosphorylated Erk1/2 (#4370, Cell Signaling), or anti-phosphorylated JNK1/2/3 (#4668, Cell Signaling) antibody (diluted at 1:1000) at 4° C. overnight. The membrane was washed with TBS-T for 10 minutes three times and incubated with […] secondary antibody conjugated to horseradish peroxidase (HRP, GE Healthcare, 1:6000) at room temperature for 1 hour. The blot was detected with Amersham ECL Western blotting detection reagent (GE Healthcare) and quantified with ImageJ program (http://imagej.nih.gov/ij/index.html).

[5] = tested on: Bdnf, Ngf, Ntf4, Ntrk1, Ntrk2, Map2, Mapt, and Gap43; assay: Severely crushed spinal cord model mice: mRNA in spinal cord segments; assay type: in vivo, mouse; settings: spinal cord segment distal to the damaged area, 28 days after surgery, versus control group
Excerpt: Severely crushed spinal cord model mice were produced according to the “Method of producing severely crushed spinal cord model mice” as described in Example 8. Spinal cords were isolated from four mice in the zonisamide administration group and four mice in the control group 28 days after surgery and the segment of the damaged area with a length of 5 mm and the segment with a length of 5 mm distal to the damaged area were collected (FIG. 16). Total RNA was isolated using Trizol (Thermo Fisher Scientific) from each spinal cord segment with a length of 5 mm. Single-stranded cDNA was synthesized using ReverTra Ace (Toyobo). The mRNA expression levels of neurotrophic factors, Bdnf, Ngf, Ntf4, Ntrk1, Ntrk2, Map2, Mapt, and Gap43 were quantified using LightCycler 480 Real-Time PCR (Roche) and SYBR Green (Takara) (FIGS. 17, 18, 19, 20, 21, 22, 23, and 24). The mRNA levels were normalized with the expression level of GAPDH.

[6] = dose dependency, 1 μmol/L to 20 μmol/L, FIG. 1

SMILES: NS(=O)(=O)Cc1noc2ccccc12 [Zonisamide, 3-sulfamoylmethyl-1,2-benzisoxazole]
- neurite extension of primary motor neurons (screening of the 16 drugs) (primary motor neurons [1]; culture for 48 hours, tau staining): able to extend neurites
- axonal growth (average neurite length) in primary motor neurons (primary motor neurons [1]; [6]): dose-dependent axonal growth
- number of branch points in axons of primary motor neurons (primary motor neurons [1]; [6]): dose-dependent increase
- ratio of neurite-bearing cells in primary motor neurons (primary motor neurons [1]; neurite length of 25 micron or more, FIG. 1): not increased
- neurite length in the scratch assay (primary motor neurons [2]): dose-dependent increase
- neurite outgrowth effect, time-lapse imaging (primary motor neurons [3]; forty hours after zonisamide administration, FIG. 3): neurite outgrowth effect was observed
- neurite outgrowth effect, 10 μmol/L versus 1 μmol/L (primary motor neurons [3]; throughout the observation period (3 days)): higher in the 10 μmol/L zonisamide administration group than in the 1 μmol/L zonisamide administration group
- number of living cells (MTS signal) (primary motor neurons [4]): significantly increased
- Erk1/2 phosphorylation (Erk1/2): suppress
- expression level of MAP2 gene [5]: significantly increased
- expression level of NGF [5]: seemed to be increased
- expression level of Tau gene [5]: significantly increased
